Test results published in ChEMBL document CHEMBL1201862, “PubChem BioAssay data set” (2004).
Calls of active or inactive are those of the source.

Experiments:
[1] = molecular target: T1, Beta-2 adrenergic receptor (Homo sapiens, UniProt P07550); experiment: ADRB2 activation measured by internalization – cell-based, FAP fluorogen, flow cytometry, cherry pick 1, dose response (AID 588763); format: functional
[2] = molecular target: T1, Beta-2 adrenergic receptor; experiment: Dose response for HTS for Beta-2AR agonists via FAP method from Powderset3.; format: functional
[3] = Counterscreen for […] of the human trace amine associated receptor 1 (TAAR1): Fluorescence-based cell-based high throughput dose response assay to identify nonselective Ga16 agonists.; format: functional
[4] = molecular target: T2, Trace amine-associated receptor 1 (Homo sapiens, UniProt Q96RJ0); experiment: Fluorescence-based cell-based high throughput dose response assay to identify antagonists of the human trace amine associated receptor 1 (TAAR1).; format: functional
T2 sequence (Q96RJ0 whole entry): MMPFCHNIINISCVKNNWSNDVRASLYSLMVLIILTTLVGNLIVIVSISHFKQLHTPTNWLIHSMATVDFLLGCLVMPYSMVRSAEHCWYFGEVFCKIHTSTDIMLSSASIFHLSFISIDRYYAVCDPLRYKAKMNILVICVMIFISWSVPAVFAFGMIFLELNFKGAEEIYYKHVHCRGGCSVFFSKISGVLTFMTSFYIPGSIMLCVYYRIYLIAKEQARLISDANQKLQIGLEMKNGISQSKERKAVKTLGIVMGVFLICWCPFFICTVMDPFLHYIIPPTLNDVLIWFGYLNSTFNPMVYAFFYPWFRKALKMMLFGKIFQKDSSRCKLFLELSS

[5] = Counterscreen for antagonists of the human trace amine associated receptor 1 (hTAAR1): Fluorescence-based cell-based high throughput dose response assay to identify nonselective Ga16 antagonists.; format: functional
[6] = molecular target: T2, Trace amine-associated receptor 1; experiment: Counterscreen for antagonists of the human trace amine associated receptor 1 (hTAAR1): Fluorescence-based cell-based high throughput dose response assay to identify TAAR1 Agonists.; format: functional
cells [7] = format: functional, cell-based
[8] = molecular target: T2, Trace amine-associated receptor 1; experiment: Fluorescence-based cell-based high throughput dose response assay to identify agonists of the human trace amine associated receptor 1 (TAAR1).; format: functional
[9] = molecular target: T2, Trace amine-associated receptor 1; experiment: Counterscreen for agonists of the human trace amine associated receptor 1 (hTAAR1): Fluorescence-based cell-based high throughput dose response assay to identify hTAAR1 agonist that also desensitize TAAR1 receptor response.; format: functional
cells [10] = format: functional, cell-based; remark: listed apart in the source
[11] = rescue of ΔF508 CFTR function, airway epithelium – human bronchial epithelial cells, plate reader, cherry-pick, two tests, dose response (AID 743267); format: functional, cell-based
Beta Lactamase = Beta Lactamase (Pseudomonas aeruginosa, UniProt Q932Y6);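 also: confirmatory high-throughput screen measuring VIM-2 metallo-beta-lactamase inhibition by epi-absorbance in dose response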
Beta Lactamase, sequence (Q932Y6 whole entry): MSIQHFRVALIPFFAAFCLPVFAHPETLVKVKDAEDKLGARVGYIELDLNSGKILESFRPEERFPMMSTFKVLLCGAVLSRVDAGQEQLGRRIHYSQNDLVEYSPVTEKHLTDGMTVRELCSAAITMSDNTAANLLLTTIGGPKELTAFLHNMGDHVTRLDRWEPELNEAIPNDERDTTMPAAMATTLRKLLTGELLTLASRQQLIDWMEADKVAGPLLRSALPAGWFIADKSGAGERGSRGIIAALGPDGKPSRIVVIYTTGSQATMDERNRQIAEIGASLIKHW

Beta-lactamase [12] = molecular target: Beta-lactamase (Pseudomonas aeruginosa, UniProt Q79MP6);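 also: biochemical dose-response test of metallo-beta-lactamase enzyme inhibition, read out by epi-absorbance; purified recombinant IMP-1 metallo-beta-lactamase with nitrocefin as substrate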
Beta-lactamase (Pseudomonas aeruginosa, UniProt Q79MP6), sequence (Q79MP6 whole entry): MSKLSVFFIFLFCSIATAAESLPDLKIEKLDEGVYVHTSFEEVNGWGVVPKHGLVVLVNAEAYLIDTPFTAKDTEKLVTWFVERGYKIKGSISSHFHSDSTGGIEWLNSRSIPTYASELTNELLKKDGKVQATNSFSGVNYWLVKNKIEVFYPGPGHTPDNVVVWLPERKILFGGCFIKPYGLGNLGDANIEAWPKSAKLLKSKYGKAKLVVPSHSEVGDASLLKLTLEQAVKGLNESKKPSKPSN

Beta-lactamase [13] = molecular target: Beta-lactamase (Salmonella choleraesuis (strain SC-B67), UniProt Q5J463)
Beta-lactamase (Salmonella choleraesuis (strain SC-B67), UniProt Q5J463), sequence (Q5J463 whole entry): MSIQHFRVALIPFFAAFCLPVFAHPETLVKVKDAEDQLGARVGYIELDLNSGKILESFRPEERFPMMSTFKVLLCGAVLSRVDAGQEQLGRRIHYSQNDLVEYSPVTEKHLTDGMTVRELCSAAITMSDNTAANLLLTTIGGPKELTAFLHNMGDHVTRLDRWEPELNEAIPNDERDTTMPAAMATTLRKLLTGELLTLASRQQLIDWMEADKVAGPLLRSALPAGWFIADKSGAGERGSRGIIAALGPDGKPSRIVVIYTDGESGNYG

ORF 73 = ORF 73 (Human herpesvirus 8, UniProt O40947); experiment: KSHV LANA DNA-binding disruption – biochemical, fluorescence polarization, cherry-picked samples, dose response (AID 504725); design: species or system Human gammaherpesvirus 8;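 also: fluorescence polarization of a labeled DNA duplex reporting LANA DNA binding; potency is for inhibitors that block LANA binding to the DNA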
ORF 73, sequence (O40947 whole entry): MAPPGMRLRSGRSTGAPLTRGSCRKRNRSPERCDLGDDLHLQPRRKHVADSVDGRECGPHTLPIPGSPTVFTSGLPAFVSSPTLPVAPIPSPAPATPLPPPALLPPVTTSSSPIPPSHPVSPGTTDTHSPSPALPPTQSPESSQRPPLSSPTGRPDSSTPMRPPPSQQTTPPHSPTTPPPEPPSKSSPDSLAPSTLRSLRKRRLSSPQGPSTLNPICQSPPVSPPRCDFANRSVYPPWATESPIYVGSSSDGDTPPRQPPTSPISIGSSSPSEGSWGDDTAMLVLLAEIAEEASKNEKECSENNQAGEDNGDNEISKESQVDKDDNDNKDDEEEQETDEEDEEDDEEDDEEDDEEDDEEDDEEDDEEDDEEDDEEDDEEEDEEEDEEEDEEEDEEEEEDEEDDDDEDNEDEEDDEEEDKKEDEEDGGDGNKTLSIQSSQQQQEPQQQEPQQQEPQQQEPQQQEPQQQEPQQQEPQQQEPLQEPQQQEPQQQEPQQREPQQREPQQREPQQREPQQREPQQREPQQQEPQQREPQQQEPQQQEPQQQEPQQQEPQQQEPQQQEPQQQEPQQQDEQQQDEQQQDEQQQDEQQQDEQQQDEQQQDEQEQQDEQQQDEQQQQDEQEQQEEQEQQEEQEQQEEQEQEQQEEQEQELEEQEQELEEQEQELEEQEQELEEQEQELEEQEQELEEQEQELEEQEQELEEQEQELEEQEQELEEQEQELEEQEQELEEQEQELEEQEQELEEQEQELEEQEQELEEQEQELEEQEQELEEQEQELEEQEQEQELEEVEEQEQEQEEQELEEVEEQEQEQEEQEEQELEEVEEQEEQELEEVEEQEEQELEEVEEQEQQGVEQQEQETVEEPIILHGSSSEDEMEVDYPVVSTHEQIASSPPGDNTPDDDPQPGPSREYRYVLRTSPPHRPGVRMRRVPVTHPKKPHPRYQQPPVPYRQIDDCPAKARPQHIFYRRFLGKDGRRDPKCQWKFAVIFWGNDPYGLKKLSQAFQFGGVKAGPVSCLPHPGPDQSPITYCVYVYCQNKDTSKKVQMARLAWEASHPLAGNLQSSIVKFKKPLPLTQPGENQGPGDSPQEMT

[14] = molecular target: T3, Low molecular weight phosphotyrosine protein phosphatase (Homo sapiens, UniProt P24666); format: functional; conditions: read-out: IC50_Mean;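 also: Dose-response confirmation assay measuring inhibition of LMPTP enzyme activity by fluorescence intensity read-out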
T3 sequence (P24666 whole entry): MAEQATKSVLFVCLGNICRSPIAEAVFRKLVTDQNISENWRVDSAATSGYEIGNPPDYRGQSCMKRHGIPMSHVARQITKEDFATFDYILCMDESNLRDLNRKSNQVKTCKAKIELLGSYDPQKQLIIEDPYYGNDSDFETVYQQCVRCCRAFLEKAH

[15] = molecular target: T4, Tyrosine-protein phosphatase non-receptor type 22 (Homo sapiens, UniProt Q9Y2R2); experiment: PTPN22 enzyme inhibitors – biochemical, fluorescence, LYP catalytic domain, selectivity assay for LMPTP inhibitor project, dose response (AID 652006); format: functional; conditions: read-out: IC50_Mean
T4 sequence (Q9Y2R2 whole entry): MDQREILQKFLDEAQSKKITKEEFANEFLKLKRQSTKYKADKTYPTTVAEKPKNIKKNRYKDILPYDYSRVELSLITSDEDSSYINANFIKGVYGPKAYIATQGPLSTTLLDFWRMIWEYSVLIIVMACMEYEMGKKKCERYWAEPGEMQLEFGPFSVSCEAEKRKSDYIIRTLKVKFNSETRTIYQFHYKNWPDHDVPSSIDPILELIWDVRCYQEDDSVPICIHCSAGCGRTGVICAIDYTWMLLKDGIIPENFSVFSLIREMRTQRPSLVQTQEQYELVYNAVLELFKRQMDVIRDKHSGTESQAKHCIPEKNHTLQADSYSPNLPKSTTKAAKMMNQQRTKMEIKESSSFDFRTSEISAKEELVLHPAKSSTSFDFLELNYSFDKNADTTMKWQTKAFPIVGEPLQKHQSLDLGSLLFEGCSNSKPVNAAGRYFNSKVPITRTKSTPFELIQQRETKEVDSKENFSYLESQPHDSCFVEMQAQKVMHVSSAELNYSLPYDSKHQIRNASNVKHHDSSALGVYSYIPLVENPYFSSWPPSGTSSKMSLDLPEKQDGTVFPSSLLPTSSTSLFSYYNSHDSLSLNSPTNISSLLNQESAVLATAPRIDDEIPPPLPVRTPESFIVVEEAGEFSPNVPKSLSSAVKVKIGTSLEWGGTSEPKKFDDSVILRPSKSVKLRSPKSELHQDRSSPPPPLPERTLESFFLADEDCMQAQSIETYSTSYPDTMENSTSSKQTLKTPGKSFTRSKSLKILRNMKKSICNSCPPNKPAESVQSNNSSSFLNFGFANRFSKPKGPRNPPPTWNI

[16] = molecular target: T5, DNA repair protein RAD52 homolog (Homo sapiens, UniProt P43351); format: functional, biochemical
T5 sequence (P43351 whole entry): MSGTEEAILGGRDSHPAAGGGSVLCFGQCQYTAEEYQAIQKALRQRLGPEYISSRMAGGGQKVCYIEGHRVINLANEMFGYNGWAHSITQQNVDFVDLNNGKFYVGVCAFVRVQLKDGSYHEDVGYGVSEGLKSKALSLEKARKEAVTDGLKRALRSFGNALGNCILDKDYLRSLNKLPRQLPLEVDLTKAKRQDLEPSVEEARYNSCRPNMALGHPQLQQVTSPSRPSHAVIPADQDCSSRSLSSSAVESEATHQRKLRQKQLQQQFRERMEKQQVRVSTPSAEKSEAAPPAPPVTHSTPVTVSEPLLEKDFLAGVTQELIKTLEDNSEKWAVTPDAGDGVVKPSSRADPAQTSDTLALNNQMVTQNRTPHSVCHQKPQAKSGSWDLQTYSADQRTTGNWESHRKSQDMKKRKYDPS

[17] = molecular target: Matrix metalloproteinase-14 (Homo sapiens, UniProt P50281); experiment: Dose Response confirmation of uHTS hits for a small molecule inhibitors of MT1-MMP activation in a fluorescence assay set 2.; format: functional
[18] = molecular target: Palmitoyl-protein thioesterase ABHD10, mitochondrial (Mus musculus, UniProt Q6PE15); experiment: Late stage assay provider results from the probe development effort to identify inhibitors of PME-1: fluorescence-based dose response biochemical gel-based competitive Activity-Based Protein Profiling (ABPP) inhibition of ABHD10 Set 1.; format: functional
Palmitoyl-protein thioesterase ABHD10, mitochondrial, sequence (Q6PE15 whole entry): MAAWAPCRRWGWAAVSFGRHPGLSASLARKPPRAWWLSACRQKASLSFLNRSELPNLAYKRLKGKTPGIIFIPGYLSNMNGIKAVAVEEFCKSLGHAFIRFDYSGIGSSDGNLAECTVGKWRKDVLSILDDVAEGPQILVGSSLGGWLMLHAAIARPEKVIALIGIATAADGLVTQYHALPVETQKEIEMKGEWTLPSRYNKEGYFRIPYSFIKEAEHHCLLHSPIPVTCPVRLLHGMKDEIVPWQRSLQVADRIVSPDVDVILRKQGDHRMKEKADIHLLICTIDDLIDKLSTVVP

[19] = mouse fibroblast viability loss – cell-based, cherry-pick samples, set 2, cytotoxicity control for T. cruzi growth inhibitor project, dose response (AID 651817); format: functional; conditions: NIH3T3
[20] = intracellular Trypanosoma cruzi inhibitors in host cells – cell-based, plate reader, cherry-pick samples, set 3, dose response (AID 651818); format: functional;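 also: compounds incubated with infected cells for about four days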
[21] = molecular target: T6, Sentrin-specific protease 8 (Homo sapiens, UniProt Q96LD8); format: functional
T6 sequence (Q96LD8 whole entry): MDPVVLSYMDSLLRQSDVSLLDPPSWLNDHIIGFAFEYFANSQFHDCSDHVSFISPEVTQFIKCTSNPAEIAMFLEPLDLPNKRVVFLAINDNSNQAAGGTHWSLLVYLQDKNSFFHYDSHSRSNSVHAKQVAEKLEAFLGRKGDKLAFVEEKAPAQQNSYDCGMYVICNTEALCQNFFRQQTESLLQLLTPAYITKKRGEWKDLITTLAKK

[22] = molecular target: T6, Sentrin-specific protease 8; format: functional; remark: listed apart in the source
[23] = cytotoxicity in HEK293 background cells – cell-based, dry powder, set 2, counter-screen for EBV LMP1 inhibitor project, dose response (AID 624374); format: functional

T1 sequence (P07550 whole entry): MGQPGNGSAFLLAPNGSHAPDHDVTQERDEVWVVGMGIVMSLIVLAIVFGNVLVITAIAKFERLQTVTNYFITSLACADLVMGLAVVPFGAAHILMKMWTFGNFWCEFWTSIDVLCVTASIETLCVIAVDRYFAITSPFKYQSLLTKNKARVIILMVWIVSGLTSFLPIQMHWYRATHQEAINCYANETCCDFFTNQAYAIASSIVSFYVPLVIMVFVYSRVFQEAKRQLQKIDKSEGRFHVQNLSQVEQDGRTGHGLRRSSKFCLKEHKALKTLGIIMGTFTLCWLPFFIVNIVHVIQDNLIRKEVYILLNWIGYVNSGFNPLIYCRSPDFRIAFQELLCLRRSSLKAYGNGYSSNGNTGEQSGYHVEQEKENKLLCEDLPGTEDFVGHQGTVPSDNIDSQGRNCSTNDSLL

For `CC(Sc1nc(-c2ccccc2)cc(C(F)(F)F)n1)C(=O)N1CCOCC1` (stereo not given), the EC50 [1] was 0.0435 µM (active) and the EC50 [2] was 0.0143 µM (active).

In the case of `O=C(Nc1cccnc1)c1ccc(COc2ccccc2Br)cc1`, the EC50 [3] is reported as > 29.9 µM (inactive), the IC50 [4] is reported as 4.17 µM (active) and the IC50 [5] is reported as > 29.9 µM (inactive). For the same compound, the EC50 [6] was > 29.9 µM (inactive).

In the case of `O=C(NCCc1ccccc1)C(=O)NCC1OCCN1S(=O)(=O)c1ccc2c(c1)OCCO2` (stereo not given), the IC50 (cells [7]) is reported as > 29.9 µM (inactive), the EC50 [8] is reported as 5.13 µM (active) and the IC50 [9] is reported as 8.98 µM (active). The EC50 (cells [10]) was > 29.9 µM (inactive).

In the case of `COc1cc(/C=C(\CC(=O)O)c2nc3ccccc3s2)ccc1OCC(=O)Nc1ccccc1F`, the AC50 [11] is reported as 58.5 µM (active).

With `CN(C)c1ccc(/C=N/N(CCO)C2=NS(=O)(=O)c3ccccc32)cc1` the IC50 (Beta Lactamase) was 9.4 µM (active), the IC50 (Beta-lactamase [12]) was 8.93 µM (active) and the IC50 (Beta-lactamase [13]) was 6.94 µM (active). For the same compound, the AC50 (ORF 73) was 1 µM (active).

In the case of `CN1/C(=C/C=C/c2n(C)c3cc([N+](=O)[O-])c([N+](=O)[O-])cc3[n+]2C)C(C)(C)c2ccccc21`, the IC50 [14] is reported as 20.1 µM (inactive), the IC50 [15] is reported as 42.2 µM (inactive) and the AC50 [16] is reported as 18.4 µM (active). The IC50 [17] was 6.17 µM (active).

For `CC[C@@]1(c2ccccc2)C(=O)N(C(=O)OC(C)C)N1C(=O)OC(C)C`, the IC50 [18] was 0.13 µM (active).

With `C[C@H](CO)N1C[C@H](C)[C@@H](CN(C)Cc2ccc(Cl)c(Cl)c2)Oc2c(NC(=O)Nc3ccc(C(F)(F)F)cc3)cccc2C1=O` the AC50 [19] was 10.2 µM (active) and the AC50 [20] was 3.08 µM (active).

With `Nc1cc(N)cc(C(=O)c2ccccc2)c1` the IC50 [21] was 10.4 µM (active) and the IC50 [22] was 13.8 µM (active).

Compound `COC(=O)C[C@H]1C[C@H]2c3cc(NC(=O)CN(C)C)ccc3O[C@H]2[C@H](CO)O1` has an AbsAC35 [23] of 110.27 µM.
